Test results: ChEMBL document CHEMBL3045965, “Design, synthesis, and evaluation of fluorescent cell-penetrating peptidic antagonists of Grb2-SH2 for targeting MCF-7 breast cancer cells” (Med Chem Res, 2013)
Square brackets hold non-standard residues; d marks the D form. Peptide text beside a SMILES is read from it. * marks the point of attachment. Fmoc = O=C(OCC1c2ccccc2-c2ccccc21)*; Aib = CC(C)(N)C(=O)O

What was measured:
[1] = target: Growth factor receptor-bound protein 2 (Homo sapiens, UniProt P62993); assay: Binding affinity to Grb2-SH2 (unknown origin) by surface plasmon resonance analysis
MCF7 [2] = assay: Cytotoxicity against Homo sapiens (human) MCF7 cells assessed as cell viability at 100 uM after 48 hr by MTT assay relative to control; assay type: functional; settings: MCF7, 48 h, read-out: Activity
MCF7 [3] = assay: Cytotoxicity against Homo sapiens (human) MCF7 cells assessed as cell viability at 75 uM after 48 hr by MTT assay relative to control; assay type: functional; settings: MCF7, 48 h, read-out: Activity
MCF7 [4] = assay: Cytotoxicity against Homo sapiens (human) MCF7 cells assessed as cell viability at 50 uM after 48 hr by MTT assay relative to control; assay type: functional; settings: MCF7, 48 h, read-out: Activity
MCF7 [5] = assay: Cytotoxicity against Homo sapiens (human) MCF7 cells assessed as cell viability at 25 uM after 48 hr by MTT assay relative to control; assay type: functional; settings: MCF7, 48 h, read-out: Activity
MCF7 [6] = assay: Cytotoxicity against Homo sapiens (human) MCF7 cells assessed as cell viability after 48 hr by MTT assay; assay type: functional, cell-based; settings: MCF7, 48 h
MCF7 [7] = assay: Cytotoxicity against Homo sapiens (human) MCF7 cells assessed as cell viability after 24 hr by MTT assay; assay type: functional, cell-based; settings: MCF7, 24 h

| Kd [1] [nM] | SMILES | viability at 100 µM (MCF7 [2]) [%] | viability at 75 µM (MCF7 [3]) [%] | viability at 50 µM (MCF7 [4]) [%] | viability at 25 µM (MCF7 [5]) [%] | IC50 (MCF7 [6]) [µM] | IC50 (MCF7 [7]) [µM] |
| --- | --- | --- | --- | --- | --- | --- | --- |
| 6.3 | CC(C)(NC(=O)[C@H](Cc1ccc(O)cc1)NC(=O)[C@H](CCC(=O)O)NC(=O)OCC1c2ccccc2-c2ccccc21)C(=O)N[C@@H](CC(N)=O)C(=O)O (Fmoc-EY[Aib]N-OH) | 95.1 | 98.2 | 104 | 104 |  |  |
|  | CC(C)(NC(=O)[C@H](Cc1ccc(O)cc1)NC(=O)[C@H](CCC(=O)O)NC(=O)OCC1c2ccccc2-c2ccccc21)C(=O)N[C@@H](CC(N)=O)C(=O)NCC(=O)N[C@@H](CCCNC(=N)N)C(=O)N[C@@H](CCCCN)C(=O)N[C@@H](CCCCN)C(=O)N[C@@H](CCCNC(=N)N)C(=O)N[C@@H](CCCNC(=N)N)C(=O)O (Fmoc-EY[Aib]NGRKKRR-OH) | 85.3 | 90.9 | 91.6 | 84.2 | > 100 |  |
|  | CC[C@H](C)[C@H](NC(=O)[C@H](C)NC(=O)[C@@H](NC(=O)[C@H](Cc1ccc(O)cc1)NC(=O)[C@H](CC(N)=O)NC(=O)C(C)(C)NC(=O)[C@H](Cc1ccc(O)cc1)NC(=O)[C@H](CCC(=O)O)NC(=O)OCC1c2ccccc2-c2ccccc21)[C@@H](C)O)C(=O)N[C@@H](C)C(=O)N[C@@H](Cc1c[nH]c2ccccc12)C(=O)N[C@H](C(=O)N[C@@H](CCCCN)C(=O)N[C@@H](C)C(=O)N[C@@H](Cc1ccccc1)C(=O)N[C@H](C(=O)N[C@@H](CCCNC(=N)N)C(=O)N[C@@H](CCCCN)C(=O)N[C@@H](CC(C)C)C(=O)N[C@@H](CCCNC(=N)N)C(=O)N[C@@H](CCCCN)C(=O)O)[C@@H](C)CC)C(C)C (Fmoc-EY[Aib]NYTAIAWVKAFIRKLRK-OH) | 79.8 | 77.3 | 86.5 | 94.1 | > 100 |  |
|  | CC(C)(NC(=O)[C@H](Cc1ccc(O)cc1)NC(=O)[C@@H](N)CCC(=O)O)C(=O)N[C@@H](CC(N)=O)C(=O)NCC(=O)N[C@@H](CCCNC(=N)N)C(=O)N[C@@H](CCCCN)C(=O)N[C@@H](CCCCN)C(=O)N[C@@H](CCCNC(=N)N)C(=O)N[C@@H](CCCNC(=N)N)C(=O)O (H-EY[Aib]NGRKKRR-OH) | 93.1 | 91.5 | 99.4 | 90.7 | > 100 |  |
|  | CC[C@H](C)[C@H](NC(=O)[C@H](C)NC(=O)[C@@H](NC(=O)[C@H](Cc1ccc(O)cc1)NC(=O)[C@H](CC(N)=O)NC(=O)C(C)(C)NC(=O)[C@H](Cc1ccc(O)cc1)NC(=O)[C@@H](N)CCC(=O)O)[C@@H](C)O)C(=O)N[C@@H](C)C(=O)N[C@@H](Cc1c[nH]c2ccccc12)C(=O)N[C@H](C(=O)N[C@@H](CCCCN)C(=O)N[C@@H](C)C(=O)N[C@@H](Cc1ccccc1)C(=O)N[C@H](C(=O)N[C@@H](CCCNC(=N)N)C(=O)N[C@@H](CCCCN)C(=O)N[C@@H](CC(C)C)C(=O)N[C@@H](CCCNC(=N)N)C(=O)N[C@@H](CCCCN)C(=O)O)[C@@H](C)CC)C(C)C (H-EY[Aib]NYTAIAWVKAFIRKLRK-OH) | 19.3 | 40.5 | 80.4 | 95.4 | 67.1 | 87 |
|  | N=C(N)NCCC[C@H](NC(=O)[C@H](CCCNC(=N)N)NC(=O)[C@H](CCCCN)NC(=O)[C@H](CCCCN)NC(=O)[C@H](CCCNC(=N)N)NC(=O)CN)C(=O)O (H-GRKKRR-OH) | 95.4 | 102 | 98.5 | 93.9 | > 100 |  |
|  | CC(C)(NC(=O)[C@H](Cc1ccc(O)cc1)NC(=O)[C@H](CCC(=O)O)NC(=O)[C@H](CCCNC(=N)N)NC(=O)[C@H](CCCNC(=N)N)NC(=O)[C@H](CCCCN)NC(=O)[C@H](CCCCN)NC(=O)[C@H](CCCNC(=N)N)NC(=O)CN)C(=O)N[C@@H](CC(N)=O)C(=O)O (H-GRKKRREY[Aib]N-OH) | 82.1 | 83.2 | 91.6 | 90.9 | > 100 |  |
|  | CC[C@H](C)[C@H](NC(=O)[C@H](C)NC(=O)[C@@H](NC(=O)[C@H](Cc1ccc(O)cc1)NC(=O)[C@H](Cc1ccc(O)cc1)NC(=O)[C@H](CCC(=O)O)NC(=O)C(C)(C)NC(=O)[C@@H](N)CC(N)=O)[C@@H](C)O)C(=O)N[C@@H](C)C(=O)N[C@@H](Cc1c[nH]c2ccccc12)C(=O)N[C@H](C(=O)N[C@@H](CCCCN)C(=O)N[C@@H](C)C(=O)N[C@@H](Cc1ccccc1)C(=O)N[C@H](C(=O)N[C@@H](CCCNC(=N)N)C(=O)N[C@@H](CCCCN)C(=O)N[C@@H](CC(C)C)C(=O)N[C@@H](CCCNC(=N)N)C(=O)N[C@@H](CCCCN)C(=O)O)[C@@H](C)CC)C(C)C (H-N[Aib]EYYTAIAWVKAFIRKLRK-OH) | 40.6 | 56.9 | 78.9 | 85.3 | 72.4 |  |
|  | CC[C@H](C)[C@H](NC(=O)[C@H](C)NC(=O)[C@@H](N)Cc1ccc(O)cc1)C(=O)N[C@@H](C)C(=O)N[C@@H](Cc1c[nH]c2ccccc12)C(=O)N[C@H](C(=O)N[C@@H](CCCCN)C(=O)N[C@@H](C)C(=O)N[C@@H](Cc1ccccc1)C(=O)N[C@H](C(=O)N[C@@H](CCCNC(=N)N)C(=O)N[C@@H](CCCCN)C(=O)N[C@@H](CC(C)C)C(=O)N[C@@H](CCCNC(=N)N)C(=O)N[C@@H](CCCCN)C(=O)N[C@@H](CCC(=O)O)C(=O)N[C@@H](Cc1ccc(O)cc1)C(=O)NC(C)(C)C(=O)N[C@@H](CC(N)=O)C(=O)O)[C@@H](C)CC)C(C)C (H-YAIAWVKAFIRKLRKEY[Aib]N-OH) | 59.9 | 64.5 | 74.4 | 83.8 | > 100 |  |
|  | CC[C@H](C)[C@H](NC(=O)[C@H](C)NC(=O)[C@@H](NC(=O)[C@@H](N)Cc1ccc(O)cc1)[C@@H](C)O)C(=O)N[C@@H](C)C(=O)N[C@@H](Cc1c[nH]c2ccccc12)C(=O)N[C@H](C(=O)N[C@@H](CCCCN)C(=O)N[C@@H](C)C(=O)N[C@@H](Cc1ccccc1)C(=O)N[C@H](C(=O)N[C@@H](CCCNC(=N)N)C(=O)N[C@@H](CCCCN)C(=O)N[C@@H](CC(C)C)C(=O)N[C@@H](CCCNC(=N)N)C(=O)N[C@@H](CCCCN)C(=O)O)[C@@H](C)CC)C(C)C (H-YTAIAWVKAFIRKLRK-OH) | 94.9 | 96.4 | 97.7 | 101 | > 100 |  |
